Assay results published in patent publication US7632528B1, “Antimigraine combination comprising Sapindus and Emblica extracts” (Lupin Limited, priority 2000, dated 2009).
Where a name gives a salt, the structure may show the parent alone.

Legend:
migraine attacks = details: cited from earlier work
patients having migraine = assay: Multi-centric double blind clinical studies (placebo, flunarizine, internal crossover); type: in vivo, human
From the text: The objective of this study was to evaluate the efficacy and tolerability of the formulation as a prophylactic monotherapy in comparison with a placebo in patients having migraine. Patients were included in the study based on the following criteria: those aged between 15–60 years, diagnosed as having migraine as per International Headache Society Classification (IHSC) guidelines; those with at least two or more attacks of acute migraine per month for at least 6 months; women of child bearing age who take contraceptive measures during the study and those taking no other prophylactic therapy during the study period or alteast one month prior to the study. A detailed ENT examination was conducted prior to the study to rule out any nasal pathology. A written consent was taken from each patient.
Patients with more than 8 attacks a month, unstable angina, hypertension, cardiac failure, severe left ventricular failure, atrophic rhinitis, nasal polyposis, patients taking any prophylactic medication within 1 month of the study, patients with psychiatric disorders, pregnant/nursing women, patients with glaucoma and Parkinson's disease were excluded from the study.
This study, a multi-centric, randomised placebo controlled double blind (test formulation versus matched saline placebo) was conducted at five centres. A non-randomised single blind (test formulation versus flunarizine) study was conducted at two of the five centres. An internal crossover study was done at three of the five centres by cross over of patients in the test formulation and placebo groups.
The duration of study was eight months. The period of treatment was three months. Patients later on were crossed over internally (test formulation and placebo) for further treatment of three months and a follow-up period of two months. One drop of the test formulation was administered into each nostril two times a day, once in the morning and once in the evening. One drop of placebo was administrated into each nostril, once in the morning and once in the evening. flurnarizine tablet (10 mg) was administered once a day orally.
The enrolled patients underwent a general examination, E.N.T. examination and laboratory tests. Each patient was given a diary to record the details of the migraine, episodes, any adverse events(pre- and post-treatment) as well as details of rescue modification taken, if any. The same was also recorded by the investigator.
Patients were instructed on how to record the details of various visual symptoms, nausea, vomiting and headache (viz. time of onset, relief, and any additional treatment) and grade them according to severity (4 point scale) in diary. The recorded observations in the diary were reviewed every month of the study period.
The efficacy of the prophylactic treatment was evaluated on the following basis: • At least 50% reduction in the intensity or duration of migraine attacks (mean duration of migraine in hours) per month at the end of 12 weeks of treatment, compared to baseline. • Reduction in the frequency of attack per month using test formulation and flunarizine compared to placebo (>or =50%). • Consumption of drugs for symptomatic relief of breakthrough attacks in the three groups. • At least 50% or more reduction of attack in patients who respond to test formulation compared to the reduction of attack in patients given placebo. • The safety and patient compliance of test formulation was assessed on the basis of incidence and severity of side effects in each groups compared to placebo and number of drop outs in each group compared to placebo. Results
The results of the trial was statistically analysed based on the following parameters:
• 1. Atleast 50% reduction in the frequency of migraine attacks • 2. Atleast 50% reduction in the duration of migraine attacks • 3. Reduction in the severity of migraine attacks [graded as none (0), mild (1), moderate (2) and severe (3) • 4. […]

[1] = Colouration of the formulation on storage; type: physicochemical; details: 3 months
From the text: To prevent any colouration during storage of the formulation it is preferable to add an anti-oxidant to prevent the colouration. Sodium metabisulfite is preferably used. When this anti-oxidant is not added the colour of the solution changes from initial colourless to straw yellow to dark yellow in one month's time and to dark brown in three months. Addition of sodium bisulfite arrests the change in colouration. This can be used in a concentration ranging from 0.020% to 0.080% wt/vol of the composition. A range of 0.04 to 0.05% being the most preferred
Tabulation of the colour change as a function of the concentration of the sodium meta bisulfite concentration is given below in Table-III.
The importance of purging the entire system with nitrogen reflects in the colouration to the product. When no nitrogen is bubbled in to the system the colour of the formulation changes to yellow within 3 months, indicating degradation. In batches where the system is constantly kept under nitrogen atmosphere, no change in colouration is observed even after 3 months.

nasal mucosa = assay: Nasal mucosal irritation as a function of additives in the formulation; type: in vivo; details: used as the preservative of the aqueous formulation
[2] = end of third follow-up, comparison with flunarizine

CN1C[C@H](C(=O)N[C@]2(C)O[C@@]3(O)[C@@H]4CCCN4C(=O)[C@H](Cc4ccccc4)N3C2=O)C=C2c3cccc4[nH]cc(c34)C[C@H]21 [Ergotamine, Ergotamine tartrate]
incidence of side effects (migraine attacks; over that observed on use of NSAIDs): 17–41%

Fc1ccc(C(c2ccc(F)cc2)N2CCN(C/C=C/c3ccccc3)CC2)cc1 [Flunarizine, flunarizine]
DROP OUT RATE (%) (patients having migraine; 3 months treatment): 43% | Reduction in mean frequency of attacks (patients having migraine; at each follow-up): significant difference reduction in the mean frequency of attacks at the end each follow up | Reduction in the duration of attacks (patients having migraine; at the follow-ups): significant reduction in the duration of attacks only at the end of the second and third follow-up | Patients with ≧50% REDUCTION IN DURATION (patients having migraine; end of third follow up, comparison with flunarizine): 52.0% | Patients with ≧50% REDUCTION IN DISABILITY (patients having migraine; [2]): 69.6% | Patients with ≧50% REDUCTION IN SEVERITY (patients having migraine; [2]): 42.3% | Patients with ≧50% REDUCTION IN FREQUENCY (patients having migraine; third follow up, comparison with flunarizine): 81.5%

O=S([O-])S(=O)(=O)[O-].[Na+].[Na+] [Sodium meta bisulfite]
Change in colour ([1]; sodium meta bisulfite 0.020 % w/v): Colourless→light brown (3 months) | Change in colour ([1]; sodium meta bisulfite 0.040 % w/v): Colourless→light Yellow (3 months) | Change in colour ([1]; sodium meta bisulfite 0.050 % w/v): Colourless→very light Yellow (3 months) | Change in colour ([1]; sodium meta bisulfite 0.075 % w/v): Remains Colourless (3 months) | Change in colour ([1]; sodium meta bisulfite 0.080 % w/v): Remains Colourless (3 months)

CNS(=O)(=O)Cc1ccc2[nH]cc(CCN(C)C)c2c1 [Sumatriptan, sumatriptan]
relief to migraine attacks (migraine attacks; in one hour, placebo less than 27%): 70%

benzalkonium chloride
Mucosal irritation (nasal mucosa): causes mucosal irritation
